According to US10239887B2, “Positive allosteric modulators of the muscarinic acetylcholine receptor M4” (Vanderbilt University, priority 2016, dated 2019):
Where a name gives a salt, the structure may show the parent alone.

Target: T1, human mAChR M4 (Homo sapiens, UniProt P08173)
T1 sequence (P08173 1-479): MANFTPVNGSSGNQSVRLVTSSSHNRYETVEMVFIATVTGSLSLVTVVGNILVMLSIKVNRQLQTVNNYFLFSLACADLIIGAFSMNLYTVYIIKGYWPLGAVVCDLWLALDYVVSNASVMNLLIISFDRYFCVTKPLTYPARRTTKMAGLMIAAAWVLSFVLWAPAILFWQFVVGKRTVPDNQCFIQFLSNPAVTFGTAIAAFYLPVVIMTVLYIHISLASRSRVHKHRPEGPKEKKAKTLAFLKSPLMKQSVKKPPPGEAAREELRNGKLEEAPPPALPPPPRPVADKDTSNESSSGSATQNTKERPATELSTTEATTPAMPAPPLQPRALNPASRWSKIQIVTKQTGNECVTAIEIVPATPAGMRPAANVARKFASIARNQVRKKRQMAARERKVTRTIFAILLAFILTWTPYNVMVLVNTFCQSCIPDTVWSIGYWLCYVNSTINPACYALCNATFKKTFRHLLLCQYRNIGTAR
Assay: mAChR M4 cell-based functional assay (calcium flux), human M4
Settings: Table 10; for EC50: Human M4 EC50 (nM); for Emax / Emax (%): % ACh maximum at 30 μM

[1] = calcium flux, PAM activity with EC20 acetylcholine

| EC50 (unit μM (bounds)) [nM] | Emax [%] | EC50 [1] [nM] | SMILES | Emax (%) |
| --- | --- | --- | --- | --- |
| > 10000 | 33.6 |  | COc1ccc(CNc2ncnc3c2sc2nc(C)c(Cl)c(C)c23)cc1OC [Compound 267, 8-chloro-N-[(3,4-dimethoxyphenyl)methyl]-7,9-dimethyl-pyrido[3′,2′:4,5]thieno [3,2-d]pyrimidin-4-amine hydrochloride] |  |
|  | 31.3 | 3170 | Cc1nc2sc3c(NCc4ccc(-n5ccnc5)cc4)ncnc3c2c(C)c1Cl [Compound 268, 8-chloro-N-[(4-imidazol-1-ylphenyl)methyl]-7,9-dimethyl-pyrido[3′,2′:4,5] thieno[3,2-d]pyrimidin-4-amine dihydrochloride] |  |
|  | 71.2 | 3570 | Cc1nc2sc3c(NCc4ccc(CN5CCOCC5)cc4)ncnc3c2c(C)c1Cl [Compound 269, 8-chloro-7,9-dimethyl-N-[[4-(morpholinomethyl)phenyl]methyl]pyrido [3′,2′:4,5]thieno[3,2-d] pyrimidin-4-amine dihydrochloride] |  |
| > 10000 | 22 |  | Cc1nc2sc3c(NCc4ccc5c(c4)CC(C)(C)O5)ncnc3c2c(C)c1Cl [Compound 270, 8-chloro-N-[(2,2-dimethyl-3H-benzofuran-5-yl)methyl]-7,9-dimethyl-pyrido[3′,2′:4,5]thieno [3,2-d]pyrimidin-4-amine dihydrochloride] |  |
| > 10000 | 74.7 |  | Cc1ncc(CNc2ncnc3c2sc2nc(C)c(Cl)c(C)c23)cn1 [Compound 271, 8-chloro-7,9-dimethyl-N-[(2-methylpyrimidin-5-yl)methyl]pyrido [3′,2′:4,5]thieno[3,2-d] pyrimidin-4-amine dihydrochloride] |  |
|  | 60.6 | 3620 | Cc1nc2sc3c(NC4CN(c5ncc(C(F)(F)F)cn5)C4)ncnc3c2c(C)c1Cl [Compound 272, 8-chloro-7,9-dimethyl-N-[1-[5-(trifluoromethyl)pyrimidin-2-yl]azetidin-3-yl]pyrido[3′,2′:4,5] hieno[3,2-d]pyrimidin-4-amine dihydrochloride] |  |
|  | 59.5 | 1840 | Cc1nc2sc3c(NCC4CCOC4)ncnc3c2c(C)c1Cl (centres unmarked) [Compound 273, 8-chloro-7,9-dimethyl-N-(tetrahydrofuran-3-ylmethyl) pyrido[3′,2′:4,5]thieno [3,2-d]pyrimidin-4-amine dihydrochloride] |  |
| > 10000 | 45.3 |  | Cc1nc2sc3c(NCc4ccc(C5(O)CCC5)cc4)ncnc3c2c(C)c1Cl [Compound 276, 1-[4-[[(8-chloro-7,9-dimethyl-pyrido [3′,2′:4,5]thieno[3,2-d]pyrimidin-4-yl)amino]methyl]phenyl]cyclobutanol] |  |
|  | 70.5 | 2320 | Cc1nc2sc3c(NCc4cccc(C5(O)CCC5)c4)ncnc3c2c(C)c1Cl [Compound 277, 1-[3-[[(8-chloro-7,9-dimethyl-pyrido [3′,2′:4,5]thieno[3,2-d]pyrimidin-4-yl)amino]methyl]phenyl]cyclobutanol] |  |
|  | 37 | 3800 | Cc1nc2sc3c(NCc4ccc(C(C)(C)O)c(F)c4)ncnc3c2c(C)c1Cl [Compound 278, 2-[4-[[(8-chloro-7,9-dimethyl-pyrido [3′,2′:4,5]thieno[3,2-d]pyrimidin-4-yl)amino]methyl]-2-fluoro-phenyl] propan-2-ol] |  |
|  | 49.4 | 6020 | Cc1nc2sc3c(NCc4ccc(C(C)(C)O)cc4F)ncnc3c2c(C)c1Cl [Compound 279, 2-[4-[[(8-chloro-7,9-dimethyl-pyrido [3′,2′:4,5]thieno[3,2-d]pyrimidin-4-yl)amino]methyl]-3-fluoro-phenyl] propan-2-ol] |  |
|  | 86.7 |  | COc1nnc2sc3c(NCc4ccc(C(C)(C)O)cc4)ncnc3c2c1C [Compound 280, 2-[4-[[(3-methoxy-4-methyl-pyrimido [4′,5′:4,5]thieno[2,3-c]pyridazin-8-yl)amino]methyl]phenyl]propan-2-ol] |  |
|  | 117 | 47.7 | COc1nnc2sc3c(N4CCCC4)ncnc3c2c1C [Compound 281, 3-methoxy-4-methyl-8-pyrrolidin-1-yl-pyrimido [4′,5′:4,5]thieno[2,3-c] pyridazine] |  |
|  | 90.9 | 1140 | COc1nnc2sc3c(NC4CN(c5ncc(C(F)(F)F)cn5)C4)ncnc3c2c1C [Compound 282, 3-methoxy-4-methyl-N-[1-[5-(trifluoromethyl)pyrimidin-2-yl]azetidin-3-yl]pyrimido[4′,5′:4,5]thieno [2,3-c]pyridazin-8-amine] |  |
|  | 40.6 | 1250 | CCNc1ncnc2c1oc1nc(C)c(Cl)c(C)c12 [Compound 287, 8-chloro-N-ethyl-7,9-dimethyl-pyrido[3′,2′:4,5]furo[3,2-d]pyrimidin-4-amine hydrochloride] |  |
|  | 54.4 | 1880 | Cc1nc2oc3c(NCc4cccc(C(C)(C)O)c4)ncnc3c2c(C)c1Cl [Compound 288, 2-[3-[[(8-chloro-7,9-dimethyl-pyrido[3′,2′:4,5]furo[3,2-d]pyrimidin-4-yl)amino]methyl]phenyl]propan-2-ol] |  |
|  | 34.9 |  | Cc1cc(C)c2c(n1)oc1c(NC3CN(c4ncc(F)cn4)C3)ncnc12 [Compound 289, N-[1-(5-fluoropyrimidin-2-yl)azetidin-3-yl]-7,9-dimethyl-pyrido[3′,2′:4,5]furo[3,2-d]pyrimidin-4-amine hydrochloride] |  |
|  | 42.5 | 1200 | Cc1cc(C)c2c(n1)oc1c(NCc3ccc(S(C)(=O)=O)cc3)ncnc12 [Compound 292, 7,9-dimethyl-N-[(4-methylsulfonylphenyl)methyl]pyrido[3′,2′:4,5]furo [3,2-d]pyrimidin-4-amine hydrochloride] |  |
|  | 56.3 | 3380 | Cc1cc(C)c2c(n1)oc1c(NC3CC3c3ccc(F)c(F)c3)ncnc12 (centres unmarked) [Compound 294, N-[2-(3,4-difluorophenyl)cyclopropyl]-7,9-dimethyl-pyrido[3′,2′:4,5]furo [3,2-d]pyrimidin-4-amine hydrochloride] |  |
|  |  |  | Cc1cc(C)c2c(n1)oc1c(NC3CC3)ncnc12 [Compound 295, N-cyclopropyl-7,9-dimethyl-pyrido[3′,2′:4,5]furo[3,2-d]pyrimidin-4-amine hydrochloride] | 63.93 |
|  | 37.7 | 3370 | Cc1cc(C)c2c(n1)oc1c(N3CC4(COC4)C3)ncnc12 [Compound 296, 7,9-dimethyl-4-(2-oxa-6-azaspiro[3.3]heptan-6-yl)pyrido[3′,2′:4,5]furo[3,2-d]pyrimidine] |  |
|  | 73 | 59.4 | Cc1nnc2oc3c(NC4CN(c5ccc(F)c(F)c5)C4)ncnc3c2c1C [Compound 297, N-[1-(3,4-difluorophenyl)azetidin-3-yl]-3,4-dimethyl-pyrimido[4′,5′:4,5]furo [2,3-c]pyridazin-8-amine] |  |
|  | 58.2 | 862 | Cc1nnc2oc3c(NCc4ccc(C5(O)CCC5)cc4)ncnc3c2c1C [Compound 298, 1-[4-[[(3,4-dimethylpyrimido [4′,5′:4,5]furo[2,3-c]pyridazin-8-yl)amino]methyl]phenyl]cyclobutanol] |  |
|  | 61.2 | 2290 | Cc1nnc2oc3c(NCc4ccc(C(C)(C)O)cc4)ncnc3c2c1C [Compound 299, 2-[4-[[(3,4-dimethylpyrimido [4′,5′:4,5]furo[2,3-c]pyridazin-8-yl)amino]methyl]phenyl]propan-2-ol] |  |
|  | 61.1 |  | Cc1nnc2oc3c(NCc4cccc(C5(O)CCC5)c4)ncnc3c2c1C [Compound 300, 1-[3-[[(3,4-dimethylpyrimido [4′,5′:4,5]furo[2,3-c]pyridazin-8-yl)amino]methyl]phenyl]cyclobutanol] |  |
|  | 63.4 |  | Cc1nnc2oc3c(NCc4cccc(C(C)(C)O)c4)ncnc3c2c1C [Compound 301, 2-[3-[[(3,4-dimethylpyrimido [4′,5′:4,5]furo[2,3-c]pyridazin-8-yl)amino]methyl]phenyl]propan-2-ol] |  |
|  | 66.5 | 1300 | Cc1nnc2oc3c(NC4CC4)ncnc3c2c1C [Compound 302, N-cyclopropyl-3,4-dimethyl-pyrimido [4′,5′:4,5]furo[2,3-c]pyridazin-8-amine] |  |
|  | 54.8 | 1530 | Cc1nnc2oc3c(NC4CCC4)ncnc3c2c1C [Compound 303, N-cyclobutyl-3,4-dimethyl-pyrimido [4′,5′:4,5]furo[2,3-c]pyridazin-8-amine] |  |
|  | 45.9 | 818 | Cc1nnc2oc3c(NC4CCCC4)ncnc3c2c1C [Compound 304, N-cyclopentyl-3,4-dimethyl-pyrimido [4′,5′:4,5]furo[2,3-c]pyridazin-8-amine] |  |
| > 10000 | 25.6 |  | Cc1nnc2oc3c(NC4CC5(COC5)C4)ncnc3c2c1C [Compound 305, 3,4-dimethyl-N-(2-oxaspiro[3.3]heptan-6-yl)pyrimido[4′,5′:4,5] furo[2,3-c]pyridazin-8-amine] |  |

| SMILES | EC50 (unit μM (bounds)) [nM] | Emax [%] | EC50 [1] [nM] | Emax (%) |
| --- | --- | --- | --- | --- |
| Cc1cc(C)c2c(n1)oc1c(NC3CN(c4cc(Cl)ncc4Cl)C3)ncnc12 [Compound 290, N-[1-(2,5-dichloro-4-pyridyl)azetidin-3-yl]-7,9-dimethyl-pyrido[3′,2′:4,5]furo[3,2-d]pyrimidin-4-amine dihydrochloride] |  |  | 1490 | 49.29 |
| Cc1cc(C)c2c(n1)oc1c(NC3CCC3)ncnc12 [Compound 293, N-cyclobutyl-7,9-dimethyl-pyrido[3′,2′:4,5]furo[3,2-d]pyrimidin-4-amine hydrochloride] |  |  | 1590 | 44.18 |
